{
  "source": "patent US7105512B2",
  "about": "“Ophthalmic aqueous pharmaceutical preparation” (Wakamoto Pharmaceutical Co., Ltd., priority 1999, dated 2006)",
  "key": {"[1]": {"assay": "Comparison of solubility in water of meloxicam salts by UV analysis"}, "[2]": {"assay": "Solubility of meloxicam in water near the neutral pH region", "format": "physicochemical", "conditions": "at 25° C."}, "[3]": {"conditions": "pH of the aqueous solution at the concentration of the same line, below saturation"}, "[4]": {"conditions": "pH of the saturated aqueous solution (SAS)"}},
  "note": "Values joined by “and” are separate entries in the source; they are usually repeats but may differ in a detail not shown here. Identical values can stand only once. Counter-ions that a name gives are not always drawn.",
  "data": [
    {"smiles": "CNC[C@H](O)[C@@H](O)[C@H](O)[C@H](O)CO.Cc1cnc(NC(=O)C2=C(O)c3ccccc3S(=O)(=O)N2C)s1", "note": "[Meglumine Salt, meglumine salt of meloxicam]", "values": [
      {"measurement": "pH", "setting": "[1]; [3]", "value": "8.57 and 8.64 and 8.73"},
      {"measurement": "pH", "setting": "[1]; [4]", "value": 9.02}
    ]},
    {"smiles": "Cc1cnc(NC(=O)C2=C([O-])c3ccccc3S(=O)(=O)N2C)s1.[Na+]", "note": "[Sodium Salt, Sodium salt of meloxicam]", "values": [
      {"measurement": "pH", "setting": "[1]; [4]", "value": 8.06}
    ]},
    {"smiles": "Cc1cnc(NC(=O)C2=C(O)c3ccccc3S(=O)(=O)N2C)s1", "note": "[Trometamol Salt, trometamol salt of meloxicam]", "values": [
      {"measurement": "pH", "setting": "[1]; [3]", "value": "7.52 and 7.71"},
      {"measurement": "pH", "setting": "[1]; [4]", "value": 7.93}
    ]},
    {"smiles": "Cc1cnc(NC(=O)C2=C(O)c3ccccc3S(=O)(=O)N2C)s1", "note": "[meloxicam]", "values": [
      {"measurement": "solubility of meloxicam in water, saturated concentration", "setting": "[2]", "value": "about 0.2 mg/100 mL"}
    ]}
  ]
}
